{"source": "patent US20260265360A1", "about": "“USE OF ANTI-FAM19A5 ANTAGONISTS FOR TREATING HEARING DISORDERS” (NEURACLE SCIENCE CO., LTD., priority 2023, published 2026)", "key": {"[1]": {"system": "inner hair cells of mouse cochlear explant", "experiment": "Reversal of FAM19A5-induced inhibition of synaptogenesis (CtBP2 puncta)", "type": "cell-based", "settings": "FAM19A5 protein 1 μM alone, treated 1 DIV, stained 2 DIV", "experimental": "Cochlear explant were cultured in medium consisting of plating media, which consist of Neurobasal media (Invitrogen), 1% N2 supplement, and 10 μg/mL Ampicillin with culture media with additional 1% FBS.\nPostnatal day 4-5 (P4-5) C57BL/6 mice were sacrificed for inner ear dissection. Mouse head was bisected, and brain tissue was removed. Cochlea was carefully separated the from the extraneous bones in ice-cold HBSS (5 mM HEPES/1.3 mM CaCl2), 0.9 mM MgCl2, pH 7.4) or External solution (1.2 mM CaCl2), 1 mM MgCl2, 5 mM HEPES in HBSS). Then the stria vascularis and spiral bone plate was removed, and cochlea was cut into two to three sections. […]\nMouse cochlear explant cultures were treated with FAM19A5, FAM19A5 combined with a FAM19A5 antagonist (e.g., described herein, e.g., 1-30 antibody), or a FAM19A5 antagonist (e.g., described herein, e.g., 1-30 antibody) alone at 1 DIV to determine the level of synaptogenesis at 2 DIV by immunostaining CtBP2, a ribbon synapse marker. To quantify the number of CtBP2 puncta of individual inner hair cells, z-stack confocal images were exported in “multi-page” and the number of CtBP2 puncta from each individual inner hair cells were measured using ROI manger and multi-point tool from Fiji (Image J). Number of CtBP2 puncta from five individual inner hair cells were counted per image and 3 z-stack images were measured from each treatment group. […]"}, "[2]": {"system": "mouse primary spiral ganglion neurons", "experiment": "Reversal of FAM19A5-induced inhibition of neurite outgrowth", "type": "cell-based", "settings": "FAM19A5 protein 10 μM alone, treated 0 DIV, NF200 staining at 3 DIV", "experimental": "Sprial ganglion neuron were cultured in culture media consisting of high-glucose (4.5 mg/mL) DMEM, 0.1 mg/ml penicillin, 0.1 mg/mL streptomycin, N2 supplement, and 10 µg/mL insulin and was designated here as “5K” because in this media, [K+]=5.4 mM. A depolarizing media, designated as “30K,” in which Na was replaced with equimolar K to raise [K] to 30 mM while maintaining osmolarity was also used.\nDissociated spiral ganglion cell cultures were prepared from postnatal day 4-5 (P4-5) cochleae and maintained using a procedure modified from the methods described by Bok et al., J Neurosci 23 (3): 777-87 (2003), which is incorporated herein by reference in its entirety. […]\nNeurite outgrowth was quantified by measuring the total length of neurites per neuron. Neurons were stained with NF200 at either 2 or 3 DIV, and neurite lengths were measured using the Fiji (Image J). Individual neurons were manually selected, and neurite lengths were determined using the Simple Neurite Tracer plugin.\nBriefly, mouse primary spiral ganglion neurons (cultured and processed as described in Example 11) were treated with a FAM19A5 protein (10 μM) alone or in combination with an anti-FAM19A5 antibody (1-30) (100 nM) at 0 DIV (day in vitro). […] Then, at 3 DIV, the neurons were stained for neurofilament protein (NF200) expression and the average neurite length quantified."}}, "data": [{"substance": "FAM19A5 protein: FAM19A5 protein added to neuron and cochlear explant cultures to inhibit neurite outgrowth and synaptogenesis", "values": [{"measurement": "number of CtBP2 puncta in inner hair cells vs control group", "setting": "[1]", "value": "significantly decreased"}, {"measurement": "total neurite length vs non-treated cells", "setting": "[2]", "value": "significantly reduced"}]}]}
